# What was measured:
# Experiment in all cases: biochemical
# Design in all cases: KINOMEscan competition binding panel (Eurofins DiscoverX), single concentration, % inhibition
# RIPK1 = RIPK1 (Homo sapiens, UniProt Q13546); details: read-out: 7 at 1 µM % inhibition
# Outline: (§1)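 Kinome-wide profiling (KINOMEscan, >400 human kinases) was run at 1 µM compound.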
# RET(V804M) = RET(V804M) (Homo sapiens, UniProt P07949, V804M); details: read-out: 7 at 1 µM % inhibition
# Outline: as §1
# PFCDPK1(P.falciparum) = molecular target: T1, PFCDPK1(P.falciparum) (Plasmodium falciparum, UniProt P62344); details: read-out: 7 at 1 µM % inhibition (pathogen kinases)
# T1 construct: gene CDPK1
# Outline: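 Values come from single-concentration (1 µM) profiling in the Eurofins DiscoverX KINOMEscan competition-binding platform, which covers over 400 kinases.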
# MELK = MELK (Homo sapiens, UniProt Q14680); details: read-out: 7 at 1 µM % inhibition
# Sequence of MELK (Q14680 whole entry): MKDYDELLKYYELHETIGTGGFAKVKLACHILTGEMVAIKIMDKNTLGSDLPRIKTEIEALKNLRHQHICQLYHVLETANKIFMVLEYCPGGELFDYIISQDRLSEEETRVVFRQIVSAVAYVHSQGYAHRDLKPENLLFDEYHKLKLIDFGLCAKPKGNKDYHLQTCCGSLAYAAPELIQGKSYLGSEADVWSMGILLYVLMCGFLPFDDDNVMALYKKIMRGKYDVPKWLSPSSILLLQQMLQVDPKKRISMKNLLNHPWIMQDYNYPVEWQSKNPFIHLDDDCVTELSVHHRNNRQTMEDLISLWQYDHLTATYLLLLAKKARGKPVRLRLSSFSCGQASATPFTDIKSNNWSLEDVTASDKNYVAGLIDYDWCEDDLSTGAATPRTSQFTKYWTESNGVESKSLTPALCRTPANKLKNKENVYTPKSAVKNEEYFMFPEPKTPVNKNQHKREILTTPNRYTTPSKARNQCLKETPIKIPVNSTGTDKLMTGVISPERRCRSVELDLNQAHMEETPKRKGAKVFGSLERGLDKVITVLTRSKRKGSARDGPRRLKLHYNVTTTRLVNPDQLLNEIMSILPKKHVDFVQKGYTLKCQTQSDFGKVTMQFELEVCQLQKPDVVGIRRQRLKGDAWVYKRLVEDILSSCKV
# Outline: as §1
# [1] = molecular target: T2, RPS6KA5(Kin.Dom.2-C-terminal) (Homo sapiens, UniProt O75582); details: read-out: 7 at 1 µM % inhibition
# T2 construct: Kin.Dom.2-C-terminal
# Outline: as §1
# CSF1R-autoinhibited = CSF1R-autoinhibited (Homo sapiens, UniProt P07333); details: read-out: 7 at 1 µM % inhibition
# Outline: as §1
# MEK3 = molecular target: T3, MEK3 (Homo sapiens, UniProt P46734); details: read-out: 7 at 1 µM % inhibition
# T3 construct: gene MAP2K3
# T3 sequence (P46734 whole entry): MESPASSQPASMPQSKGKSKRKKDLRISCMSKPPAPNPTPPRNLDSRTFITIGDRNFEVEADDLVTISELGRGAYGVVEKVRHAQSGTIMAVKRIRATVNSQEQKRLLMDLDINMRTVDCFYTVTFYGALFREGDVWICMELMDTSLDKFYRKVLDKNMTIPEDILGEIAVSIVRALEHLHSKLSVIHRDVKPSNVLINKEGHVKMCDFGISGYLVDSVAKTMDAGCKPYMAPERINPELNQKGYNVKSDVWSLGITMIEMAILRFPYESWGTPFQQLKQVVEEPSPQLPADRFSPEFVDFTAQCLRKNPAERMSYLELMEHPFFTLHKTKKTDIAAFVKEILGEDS
# Outline: as §1
# VRK2 = VRK2 (Homo sapiens, UniProt Q86Y07); details: read-out: 7 at 1 µM % inhibition
# Outline: as §1
# [2] = molecular target: T4, RSK2(Kin.Dom.2-C-terminal) (Homo sapiens, UniProt P51812); details: read-out: 7 at 1 µM % inhibition
# T4 construct: gene RPS6KA3; Kin.Dom.2-C-terminal
# T4 sequence (P51812 whole entry): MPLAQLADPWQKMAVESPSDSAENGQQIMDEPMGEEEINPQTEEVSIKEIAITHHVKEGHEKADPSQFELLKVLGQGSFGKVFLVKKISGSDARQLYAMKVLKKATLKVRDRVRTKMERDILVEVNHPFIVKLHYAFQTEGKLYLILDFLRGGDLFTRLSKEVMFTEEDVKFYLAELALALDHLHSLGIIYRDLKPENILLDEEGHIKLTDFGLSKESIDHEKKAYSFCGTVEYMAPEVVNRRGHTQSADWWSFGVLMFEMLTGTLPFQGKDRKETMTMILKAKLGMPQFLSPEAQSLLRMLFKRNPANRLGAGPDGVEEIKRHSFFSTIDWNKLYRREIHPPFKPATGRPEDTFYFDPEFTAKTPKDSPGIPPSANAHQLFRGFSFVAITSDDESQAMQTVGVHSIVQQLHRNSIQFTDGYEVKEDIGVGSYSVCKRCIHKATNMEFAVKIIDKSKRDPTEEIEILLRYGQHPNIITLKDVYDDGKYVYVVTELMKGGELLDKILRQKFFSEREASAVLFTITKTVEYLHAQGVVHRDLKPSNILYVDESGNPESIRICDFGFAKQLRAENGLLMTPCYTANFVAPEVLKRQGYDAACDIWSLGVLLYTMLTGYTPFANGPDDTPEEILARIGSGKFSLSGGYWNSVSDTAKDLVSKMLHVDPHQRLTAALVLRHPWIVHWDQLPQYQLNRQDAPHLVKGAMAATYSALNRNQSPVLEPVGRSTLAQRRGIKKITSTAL
# Outline: as §1
# CSNK1D = CSNK1D (Homo sapiens, UniProt P48730); details: read-out: 7 at 1 µM % inhibition
# Sequence of CSNK1D (P48730 whole entry): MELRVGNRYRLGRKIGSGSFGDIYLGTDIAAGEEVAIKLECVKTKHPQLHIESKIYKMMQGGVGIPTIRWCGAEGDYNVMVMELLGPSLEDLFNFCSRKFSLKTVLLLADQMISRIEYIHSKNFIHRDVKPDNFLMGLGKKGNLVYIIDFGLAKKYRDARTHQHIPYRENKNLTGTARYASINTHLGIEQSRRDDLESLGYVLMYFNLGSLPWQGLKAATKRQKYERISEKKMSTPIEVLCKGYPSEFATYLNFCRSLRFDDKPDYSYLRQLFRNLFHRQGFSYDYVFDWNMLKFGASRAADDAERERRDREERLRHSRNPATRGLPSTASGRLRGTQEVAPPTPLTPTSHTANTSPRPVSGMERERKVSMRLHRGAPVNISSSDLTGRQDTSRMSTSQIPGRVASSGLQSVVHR
# Outline: as §1
# NEK4 = NEK4 (Homo sapiens, UniProt P51957); details: read-out: 7 at 1 µM % inhibition
# Sequence of NEK4 (P51957 whole entry): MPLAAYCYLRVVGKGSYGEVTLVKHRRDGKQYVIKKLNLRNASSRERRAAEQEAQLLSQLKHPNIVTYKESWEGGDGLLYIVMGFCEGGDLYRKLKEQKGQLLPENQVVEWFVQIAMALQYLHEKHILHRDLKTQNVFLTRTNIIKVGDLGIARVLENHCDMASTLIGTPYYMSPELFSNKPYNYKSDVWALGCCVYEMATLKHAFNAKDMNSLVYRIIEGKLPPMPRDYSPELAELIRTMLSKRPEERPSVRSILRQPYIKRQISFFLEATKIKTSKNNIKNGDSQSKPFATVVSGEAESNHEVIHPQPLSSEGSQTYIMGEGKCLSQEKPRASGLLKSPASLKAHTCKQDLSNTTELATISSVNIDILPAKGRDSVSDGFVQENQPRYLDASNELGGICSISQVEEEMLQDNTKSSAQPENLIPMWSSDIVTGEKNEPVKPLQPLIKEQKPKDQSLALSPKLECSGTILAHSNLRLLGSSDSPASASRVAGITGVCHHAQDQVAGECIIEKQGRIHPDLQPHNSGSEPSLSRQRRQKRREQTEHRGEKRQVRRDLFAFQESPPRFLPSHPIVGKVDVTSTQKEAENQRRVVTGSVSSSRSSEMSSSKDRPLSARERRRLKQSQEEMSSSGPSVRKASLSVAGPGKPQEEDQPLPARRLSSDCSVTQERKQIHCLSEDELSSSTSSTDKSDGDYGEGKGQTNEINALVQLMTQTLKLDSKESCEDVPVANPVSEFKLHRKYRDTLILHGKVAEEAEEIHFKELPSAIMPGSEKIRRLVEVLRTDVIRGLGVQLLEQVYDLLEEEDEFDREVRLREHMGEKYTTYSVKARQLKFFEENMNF
# Outline: as §1
# IKK-beta = molecular target: T5, IKK-beta (Homo sapiens, UniProt O14920); details: read-out: 7 at 1 µM % inhibition
# T5 construct: gene IKBKB
# T5 sequence (O14920 whole entry): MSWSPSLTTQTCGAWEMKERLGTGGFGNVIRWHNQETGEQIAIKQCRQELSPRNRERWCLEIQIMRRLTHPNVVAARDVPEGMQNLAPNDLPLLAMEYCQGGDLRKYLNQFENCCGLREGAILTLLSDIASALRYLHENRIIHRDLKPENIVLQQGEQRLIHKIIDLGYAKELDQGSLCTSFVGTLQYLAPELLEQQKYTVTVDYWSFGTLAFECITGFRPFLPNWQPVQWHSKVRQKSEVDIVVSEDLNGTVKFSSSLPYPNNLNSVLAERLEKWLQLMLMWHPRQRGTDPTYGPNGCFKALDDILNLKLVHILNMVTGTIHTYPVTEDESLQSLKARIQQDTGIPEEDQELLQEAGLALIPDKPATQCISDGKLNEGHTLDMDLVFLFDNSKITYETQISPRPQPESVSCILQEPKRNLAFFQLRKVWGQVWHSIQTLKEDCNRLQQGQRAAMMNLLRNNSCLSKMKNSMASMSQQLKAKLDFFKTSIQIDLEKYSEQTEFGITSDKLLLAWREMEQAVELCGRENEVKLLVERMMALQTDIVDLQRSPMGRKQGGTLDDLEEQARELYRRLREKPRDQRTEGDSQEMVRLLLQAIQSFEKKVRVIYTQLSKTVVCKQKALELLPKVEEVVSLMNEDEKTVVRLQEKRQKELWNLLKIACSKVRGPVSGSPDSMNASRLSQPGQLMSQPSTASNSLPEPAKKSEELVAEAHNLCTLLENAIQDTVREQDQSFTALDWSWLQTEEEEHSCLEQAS
# Outline: as §1
# ABL1-nonphosphorylated = molecular target: T6, ABL1-nonphosphorylated (Homo sapiens, UniProt P00519); details: read-out: 7 at 1 µM % inhibition
# T6 construct: nonphosphorylated
# Outline: as §1
# ERBB3 = ERBB3 (Homo sapiens, UniProt P21860); details: read-out: 7 at 1 µM % inhibition
# Outline: as §1
# INSRR = INSRR (Homo sapiens, UniProt P14616); details: read-out: 7 at 1 µM % inhibition
# Outline: as §1
# PRKG1 = PRKG1 (Homo sapiens, UniProt Q13976); details: read-out: 7 at 1 µM % inhibition
# Outline: as §1
# PCTK3 = molecular target: T7, PCTK3 (Homo sapiens, UniProt Q07002); details: read-out: 7 at 1 µM % inhibition
# T7 construct: gene CDK18
# Outline: as §1
# [3] = molecular target: T8, ABL1(M351T)-phosphorylated (Homo sapiens, UniProt P00519, M351T); details: read-out: 7 at 1 µM % inhibition
# T8 construct: phosphorylated
# Outline: as §1
# KIT-autoinhibited = KIT-autoinhibited (Homo sapiens, UniProt P10721); details: read-out: 7 at 1 µM % inhibition
# Outline: as §1
# RIOK2 = RIOK2 (Homo sapiens, UniProt Q9BVS4); details: read-out: 7 at 1 µM % inhibition
# Sequence of RIOK2 (Q9BVS4 whole entry): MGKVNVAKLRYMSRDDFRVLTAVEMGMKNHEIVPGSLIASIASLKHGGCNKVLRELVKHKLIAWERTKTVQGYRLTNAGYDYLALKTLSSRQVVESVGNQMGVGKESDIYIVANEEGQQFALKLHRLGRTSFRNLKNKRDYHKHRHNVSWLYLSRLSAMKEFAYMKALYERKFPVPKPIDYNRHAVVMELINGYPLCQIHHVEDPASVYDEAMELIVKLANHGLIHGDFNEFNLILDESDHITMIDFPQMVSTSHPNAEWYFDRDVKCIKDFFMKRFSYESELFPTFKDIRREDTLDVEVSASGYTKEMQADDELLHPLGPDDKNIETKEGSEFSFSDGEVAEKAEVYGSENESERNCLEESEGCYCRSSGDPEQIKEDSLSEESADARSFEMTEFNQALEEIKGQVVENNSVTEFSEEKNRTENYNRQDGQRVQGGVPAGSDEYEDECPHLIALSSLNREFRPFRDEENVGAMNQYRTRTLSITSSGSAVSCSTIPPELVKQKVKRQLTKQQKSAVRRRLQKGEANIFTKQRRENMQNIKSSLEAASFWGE
# Outline: as §1
# FLT3(N841I) = FLT3(N841I) (Homo sapiens, UniProt P36888, N841I); details: read-out: 7 at 1 µM % inhibition
# Outline: as §1
# CAMK2B = CAMK2B (Homo sapiens, UniProt Q13554); details: read-out: 7 at 1 µM % inhibition
# Outline: as §1
# FLT3(D835Y) = FLT3(D835Y) (Homo sapiens, UniProt P36888, D835Y); details: read-out: 7 at 1 µM % inhibition
# Outline: as §1
# Sequence of RIPK1 (Q13546 whole entry): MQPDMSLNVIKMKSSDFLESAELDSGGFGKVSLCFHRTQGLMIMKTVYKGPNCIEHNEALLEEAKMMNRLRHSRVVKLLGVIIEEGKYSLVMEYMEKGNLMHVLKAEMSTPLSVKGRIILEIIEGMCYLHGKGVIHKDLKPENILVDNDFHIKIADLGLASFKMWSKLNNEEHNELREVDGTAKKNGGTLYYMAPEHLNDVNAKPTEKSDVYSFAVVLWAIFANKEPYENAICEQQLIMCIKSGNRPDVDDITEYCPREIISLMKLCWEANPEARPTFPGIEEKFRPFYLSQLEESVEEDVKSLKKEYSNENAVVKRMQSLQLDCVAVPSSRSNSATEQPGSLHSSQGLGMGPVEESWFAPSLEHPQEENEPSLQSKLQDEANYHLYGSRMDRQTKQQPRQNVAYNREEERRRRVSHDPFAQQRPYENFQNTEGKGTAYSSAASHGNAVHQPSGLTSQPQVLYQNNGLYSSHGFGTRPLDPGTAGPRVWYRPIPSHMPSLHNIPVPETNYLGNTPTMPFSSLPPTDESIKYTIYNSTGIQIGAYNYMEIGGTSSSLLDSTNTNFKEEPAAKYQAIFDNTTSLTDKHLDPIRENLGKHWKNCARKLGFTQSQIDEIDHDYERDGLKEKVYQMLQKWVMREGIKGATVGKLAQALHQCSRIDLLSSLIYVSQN
smiles,measurement,setting,value
"CNS(=O)(=O)c1ccc(N(C)C)c(Nc2ncnc3cc(OC)c(OC)cc23)c1 [compound 7, 3-((6,7-dimethoxyquinazolin-4-yl)amino)-4-(dimethylamino)-N-methylbenzenesulfonamide]",inhibition at 1 µM,RIPK1,0%
same,inhibition at 1 µM,RET(V804M),0%
same,inhibition at 1 µM,PFCDPK1(P.falciparum),96.3%
same,inhibition at 1 µM,MELK,17%
same,inhibition at 1 µM,[1],0%
same,inhibition at 1 µM,CSF1R-autoinhibited,39%
same,inhibition at 1 µM,MEK3,4%
same,inhibition at 1 µM,VRK2,29%
same,inhibition at 1 µM,[2],33%
same,inhibition at 1 µM,CSNK1D,0%
same,inhibition at 1 µM,NEK4,12%
same,inhibition at 1 µM,IKK-beta,68%
same,inhibition at 1 µM,ABL1-nonphosphorylated,21%
same,inhibition at 1 µM,ERBB3,31%
same,inhibition at 1 µM,INSRR,13%
same,inhibition at 1 µM,PRKG1,0%
same,inhibition at 1 µM,PCTK3,0%
same,inhibition at 1 µM,[3],6%
same,inhibition at 1 µM,KIT-autoinhibited,22%
same,inhibition at 1 µM,RIOK2,0%
same,inhibition at 1 µM,FLT3(N841I),0%
same,inhibition at 1 µM,CAMK2B,11%
same,inhibition at 1 µM,FLT3(D835Y),13%
